Measured values taken from US12358918B2, “Aryl hydrocarbon receptor (AHR) activator compounds as cancer therapeutics” (THE BROAD INSTITUTE, INC., priority 2018, dated 2025).

What was measured:
[1] = tested on: MDA-MB-231 breast cancer cell lines; assay: cytotoxicity, control cells vs cells overexpressing CYP1A1; format: cell-based
Text: The dependence of each compound's cytotoxic effects upon CYP1A1 was also examined, via screening of MDA-MB-231 breast cancer cell lines for cytotoxic response. The CYP1A1-dependence of the cytotoxic response of to each tested compound was specifically determined by comparing the cytotoxicity of each compound administered to control cells with that of the compound administered to corresponding cells that overexpressed CYP1A1. […]

[2] = tested on: MDA-MB-468 and ZR51 breast cancer and JHH7 liver cancer cell lines
[3] = tested on: MDA-MB-468 breast cancer cells; assay: Western immunoblot of treated cells over 24 hours; format: cell-based; conditions: FIG. 18
Description: Adherent cells were washed once with cold 1×PBS (Corning #01018002) and lysed with RIPA buffer (Sigma #R0278) supplemented by protease and phosphatase inhibitors (Sigma). Protein content was quantified using the DC Protein Assay (BioRad #5000111). Samples were reduced with (loading buffer) and boiled at 95° C. before being resolved by SDS gel electrophoresis on 4-20% Tris/glycine gels (Invitrogen). Proteins were transferred using the IBlot2 (Thermo #IB21001) onto the iBlot™ 2 nitrocellulose Transfer Stacks (Thermo #IB23001). The membranes were then blocked in Odyssey Blocking Buffer (Li-COR #927-40000) for one hour, and then probed overnight with primary antibodies diluted in blocking buffer. The following day, membranes were washed 3×5 mins with 1×TBST and then probed with LiCOR Infrared secondary antibodies for 1 hour at room temperature. Membranes were washed an additional 3×5 mins in 1×TBST and then imaged using the LiCOR Imager. […]

SMILES | CYP1A1-dependence of the cytotoxic response [1] | AHR-dependence of the cytotoxic response [2] | CYP1A1 expression ([3]; 24 hour time course) | FOXA1 levels ([3]; 24 hour time course) | DNA double stranded breaks (pH2A.X) and PARP cleavage ([3]; within 24 hours)
COc1ccc2nc(N)n3nc(-c4ccco4)nc3c2c1 [A15] | CYP1A1-dependent cytotoxic | dependence upon AHR |  |  | 
Cc1nc2ccccc2c2nc(-c3ccoc3)nn12 [Z1222312995] | CYP1A1-dependent cytotoxic | dependence upon AHR |  |  | 
Clc1cccc2ncn3nc(-c4ccco4)nc3c12 [10-chloro-2-(2-furyl)[1,2,4]triazolo[1,5-c]quinazoline] | CYP1A1-dependent cytotoxic | dependence upon AHR |  |  | 
Nc1nc2cccc(F)c2c2nc(-c3ccco3)nn12 [A17] | CYP1A1-dependent cytotoxic | dependence upon AHR |  |  | 
COc1cccc2c1C(=O)c1c(O)c3c(c(O)c1C2=O)C[C@@](O)(C(=O)CO)C[C@@H]3O[C@H]1C[C@H](N)[C@H](O)[C@H](C)O1 [doxorubicin] |  |  | no detectable induction of CYP1A1 expression | decline in FOXA1 levels | induced DNA double stranded breaks
Nc1nc2cc(Cl)ccc2c2nc(-c3ccco3)nn12 [BRO-026, 8-chloro-2-(furan-2-yl)-[1,2,4]triazolo[1,5-c]quinazolin-5-amine] | CYP1A1-dependent cytotoxic | dependence upon AHR |  |  | 
Nc1nc2ccc(C(F)(F)F)cc2c2nc(-c3ccco3)nn12 [BRO-024, 2-(furan-2-yl)-9-(trifluoromethyl)-[1,2,4]triazolo[1,5-c]quinazolin-5-amine] | CYP1A1-dependent cytotoxic | dependence upon AHR |  |  | 
O=c1[nH]c2ccccc2c2nc(-c3ccco3)nn12 [2-(2-furyl)[1,2,4]triazolo[1,5-c]quinazolin-5(6H)-one] | CYP1A1-dependent cytotoxic | dependence upon AHR |  |  | 
Sc1nc2ccccc2c2nc(-c3ccco3)nn12 [2-(2-furyl)[1,2,4]triazolo[1,5-c]quinazolin-5-yl hydrosulfide] | CYP1A1-dependent cytotoxic | dependence upon AHR |  |  | 
O=Cc1c2[nH]c3ccccc3c2cc2[nH]c3ccccc3c12 [FICZ, reference compound] | CYP1A1-dependent cytotoxic | dependence upon AHR |  |  | 
CC(C)c1ccc2nc(N)n3nc(-c4ccco4)nc3c2c1 [BRO-025, 2-(furan-2-yl)-9-isopropyl-[1,2,4]triazolo[1,5-c]quinazolin-5-amine] | CYP1A1-dependent cytotoxic | dependence upon AHR |  |  | 
Cc1nc2cccc(C(F)(F)F)c2c2nc(-c3ccco3)nn12 [B3] | CYP1A1-dependent cytotoxic | dependence upon AHR |  |  | 
Nc1nc2cccc(C(F)(F)F)c2c2nc(-c3ccco3)nn12 [A2] | CYP1A1-dependent cytotoxic | dependence upon AHR |  |  | 
Cc1nc2cnccc2c2nc(-c3ccco3)nn12 [B7] | CYP1A1-dependent cytotoxic | dependence upon AHR |  |  | 
CSc1nc2ccccc2c2nc(-c3ccco3)nn12 [2-(2-furyl)-5-(methylsulfanyl)[1,2,4]triazolo[1,5-c]quinazoline] | CYP1A1-dependent cytotoxic | dependence upon AHR |  |  | 
Cc1nc2cccc(Cl)c2c2nc(-c3ccco3)nn12 [B1] | CYP1A1-dependent cytotoxic | dependence upon AHR |  |  | 
O=C1NC(=O)c2c1c1c3ccccc3[nH]c1c1[nH]c3ccccc3c21 [Arcyriaflavin A, reference compound] | CYP1A1-dependent cytotoxic | dependence upon AHR |  |  | 
Cc1ccc(-c2nc3c4ccccc4nc(C)n3n2)o1 [B5] | CYP1A1-dependent cytotoxic | dependence upon AHR |  |  | 
O=c1[nH]c2ccc(Cl)c(Cl)c2c2nc(-c3ccco3)nn12 [A1] | CYP1A1-dependent cytotoxic | dependence upon AHR |  |  | 
c1ccc(-c2n[nH]c3c2oc2ccccc23)cc1 [GTP 14564, reference compound] | CYP1A1-dependent cytotoxic | dependence upon AHR |  |  | 
COc1ccc(CCCn2ncc3c2nc(N)n2nc(-c4ccco4)nc32)cc1 [SCH 442416, reference compound] | CYP1A1-dependent cytotoxic | dependence upon AHR |  |  | 
Nc1nc2cccc(Cl)c2c2nc(-c3ccco3)nn12 [BRO-027, 10-chloro-2-(furan-2-yl)-[1,2,4]triazolo[1,5-c]quinazolin-5-amine] | CYP1A1-dependent cytotoxic | dependence upon AHR |  |  | 
Nc1nc2ccc(Br)cc2c2nc(-c3ccco3)nn12 [A14] | CYP1A1-dependent cytotoxic | dependence upon AHR |  |  | 
Nc1nc2ccc(F)cc2c2nc(-c3ccco3)nn12 [BRO-023, 9-fluoro-2-(furan-2-yl)-[1,2,4]triazolo[1,5-c]quinazolin-5-amine] | CYP1A1-dependent cytotoxic | dependence upon AHR |  |  | 
c1coc(-c2nc3c4ccccc4ncn3n2)c1 [2-(2-furyl)[1,2,4]triazolo[1,5-c]quinazoline] | CYP1A1-dependent cytotoxic | dependence upon AHR |  |  | 
COc1cccc2nc(N)n3nc(-c4ccco4)nc3c12 [A16] | CYP1A1-dependent cytotoxic | dependence upon AHR |  |  | 
Cn1cccc1-c1nc2c3cc(Cl)ccc3nc(N)n2n1 [BRO-018, 9-chloro-2-(1-methyl-1H-pyrrol-2-yl)-[1,2,4]triazolo[1,5-c]quinazolin-5-amine] | CYP1A1-dependent cytotoxic | dependence upon AHR |  |  | 
Cc1nc2ccc(Cl)cc2c2nc(-c3ccco3)nn12 [B2] | CYP1A1-dependent cytotoxic | dependence upon AHR |  |  | 
